The target of one test is hCB1 (Homo sapiens, UniProt P21554). The experiment in a line: hCB1 radioligand binding assay ([3H]-CP 55,940 displacement). Particulars: HEK membranes. An excerpt:
(§1) cDNA expression clones for human CB 1 (hCB1, Genbank Accession No. AY225225) and human CB2 (hCB2, Genbank Accession No. AY242132) expressed in vector pcDNA3.1+ were purchased from UMR cDNA Resource Center, Rolla, Mo. (Clone ID CNR01L000 for hCB1; CNR0200000 for hCB2).
Stable, HEK-293-derived cell lines that recombinantly express hCB1 or hCB2 were established. In brief, the clone hCB1 (CNR1L) or hCB2 (CNR2) was transfected into human embryonic kidney cells (HEK-293) using Lipofectamine 2000 (Gibco, Cat#11668-019) according to the manufacturer's protocol. Transfected clones were isolated by single colony purification and clones were screened for receptor expression using a whole cell, ^3H—CP 55,940 radioligand binding assay. HEK-293 stable cells were maintained in Dulbecco's modified Eagles medium (DMEM) containing 10% fetal bovine serum, 2 mM L-glutamine and 0.5 mg/mL G-418.
(§2) Membranes were isolated from transfected cells as follows. Monolayers of cultured cells were washed twice with phosphate-buffered saline (PBS). Cells were scraped into 20 mM HEPES, pH 7.4, 10 mM EDTA containing complete cocktail protease inhibitors (Roche, Catalog #11 697 498 001), and were homogenized by an electric-powered mechanical probe homogenizer (Omni GLH; probe G7-195S) for 40 seconds at 7000 rpm. Homogenates were centrifuged 10 minutes at 1000×g at 4° C. The supernatant was collected and was centrifuged for 1 hour at 40,000×g. The supernatant was then decanted and the resulting pellet was re-suspended in 20 mM HEPES, pH 7.4, 5 mM MgCl2, 1 mM EDTA, 10% sucrose with complete cocktail protease inhibitors. Protein concentration of membrane suspensions were measured by Bradford Protein Assay using bovine serum albumin as the standard (BioRad catalog #500-0006). Protein concentrations of membrane suspensions were adjusted with the final buffer in the range of 5 to 10 mg/mL and were stored at −80° C. until further use.
Radioligand binding assays were performed by incubating membranes (2-10 μg protein) prepared from HEK-293 cells expressing recombinant human cannabinoid receptors, CB 1 or CB2, at room temperature with 0.5 nM cannabinoid receptor agonist, [^3H]-CP 55,940 (Perkin Elmer, catalog #NET 1051) in 0.2 mL of binding buffer (50 mM Tris-HCl, pH 7.5, 5 mM MgCl2, 2.5 mM EDTA) and 0.1% fatty acid free bovine serum albumin (Sigma Cat. #A0821) for 90 minutes. A rapid filtration technique using Millipore FB filter plates (Catalog #MADVNOB) and filtration apparatus (Millipore system Catalog MAVM0960R) with vacuum aspiration was used to harvest and rinse labeled membranes (8 times with 0.2 mL of chilled binding buffer). The radioactivity bound to the filters was counted with 0.05 mL of liquid scintillant (UltraGold MV, PerkinElmer catalog #6013159) in a scintillation counter (Perkin Elmer Microbeta instrument). Nonspecific binding was determined in the presence of unlabeled 1 μM CP 55,940 (Sigma Aldrich, catalog #C1112). Binding data were analyzed using GraphPad Prism (GraphPad Software, Inc. San Diego, Calif.).

Test [1] has as its target T1, hCB2 (Homo sapiens, UniProt P34972). In words: hCB2 GTPγS agonist assay (HEK-293 membranes). It counts as biochemical. The method, then:
as §1
as §2, with “Cells were scraped into 20 mM HEPES, pH 7.4, 10 mM EDTA containing complete cocktail protease inhibitors (Roche, Catalog #11 697 498 001), and were homogenized by an electric-powered mechanical probe homogenizer (Omni GLH; probe G7-195S) for 40 seconds at 7000 rpm.” left out
^35S GTPγS binding assays were performed by incubating recombinant cell membranes prepared above (5 μg) in the presence of scintillation proximity assay beads (SPA beads, Catalog #RPNQ0252 GE Healthcare, Buckinghamshire, England) in GTPγS binding buffer [50 mM HEPES (pH 7.4), 100 mM NaCl, 5 mM MgCl2, 0.001% saponin (Sigma catalog #S4521)] supplemented with 20 uM GDP (Sigma catalog #G7127) in the presence or absence of test compound. The reaction was carried out in 96-well microplates with 0.1 nM [^35S]GTPγS (specific activity=1250 Ci/mmol; Perkin Elmer catalog #NEG030X250UC) in a final volume of 100 μL. After a 90 min room temperature incubation, the reaction was analyzed using a scintillation counter (Perkin Elmer Microbeta instrument). Binding data were analyzed using GraphPad Prism.

The target of test [2] is T1, hCB2. The experiment in a line: hCB2 radioligand binding assay ([3H]-CP 55,940 displacement). The conditions noted are these: HEK membranes. The protocol:
as §1
as §2, with “Cells were scraped into 20 mM HEPES, pH 7.4, 10 mM EDTA containing complete cocktail protease inhibitors (Roche, Catalog #11 697 498 001), and were homogenized by an electric-powered mechanical probe homogenizer (Omni GLH; probe G7-195S) for 40 seconds at 7000 rpm.” left out
A rapid filtration technique using Millipore FB filter plates (Catalog #MADVNOB) and filtration apparatus (Millipore system Catalog MAVM0960R) with vacuum aspiration was used to harvest and rinse labeled membranes (8 times with 0.2 mL of chilled binding buffer). […] Binding data were analyzed using GraphPad Prism (GraphPad Software, Inc. San Diego, Calif.).

Test [3] addresses T1, hCB2. In words: hCB2 cAMP agonist assay (HEK-293 cells). The test is classed as cell-based. The method, then: as §1
cAMP assays were performed in HEK-293 cells stably expressing human CB 1 or CB2 receptors. […] Cells suspensions were centrifuged and the cells were washed once with PBS, were centrifuged again, and the cells were resuspended in HBSS (Hank's Balanced Salt Solution, Cellgro, Cat #21-022-CV) solution containing 10 mM HEPES and 0.1% fatty acid free BSA (Sigma, Cat #A0281). Cell suspensions were prepared at 1,500,000 cells per mL. Stock solutions of test substances (10 mM) in DMSO were diluted to 1 mM using 30% DMSO as diluent. Test substances of solutions (1 mM) were further diluted down to 3× of final assay concentrations in the above HBSS buffer containing 0.1% BSA in the presence of 90 uM forskolin (Sigma Cat#F6886). To perform the assay, 20 μL of cell suspension (1,500,000 cells/mL) were added to each well in 96 well plate and treated with 10 μL test substance solution diluted as described above. Cells and compounds were incubated at 37° C. for 30 minutes. Cells were lysed and cAMP concentration was measured using DiscoveRx-XS+ cAMP assay kit (DiscoveRx Corporation Ltd., Fremont, Calif., USA, Cat #90-0075-03), following the manufacturer's protocol. GraphPad Prism software was used to calculate EC50 values using sigmoidal dose response curve fitting. The maximal amount of cAMP produced by forskolin was defined as 100%.

Setting [4] is: GTPγS agonist, HEK membranes, read-out: hCB2 EC50 (GTPyS ag, nM, HEK).

Read-outs that look alike come from different tables or passages of the source. Some results are limits rather than exact numbers.

Sequence of hCB1 (P21554 whole entry): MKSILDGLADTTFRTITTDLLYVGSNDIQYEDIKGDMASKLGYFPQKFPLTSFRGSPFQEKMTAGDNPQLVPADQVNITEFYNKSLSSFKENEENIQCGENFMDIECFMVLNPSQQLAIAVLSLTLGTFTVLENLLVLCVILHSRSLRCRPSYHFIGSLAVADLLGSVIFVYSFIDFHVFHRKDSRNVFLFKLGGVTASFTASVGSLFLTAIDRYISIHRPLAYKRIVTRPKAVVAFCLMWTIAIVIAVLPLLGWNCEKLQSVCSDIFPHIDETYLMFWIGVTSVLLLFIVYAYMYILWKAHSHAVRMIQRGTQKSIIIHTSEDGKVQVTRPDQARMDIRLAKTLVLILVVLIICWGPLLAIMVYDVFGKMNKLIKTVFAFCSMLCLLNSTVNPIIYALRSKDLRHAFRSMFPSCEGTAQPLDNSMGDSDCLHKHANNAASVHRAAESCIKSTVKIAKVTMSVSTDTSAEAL
T1 sequence (P34972 whole entry): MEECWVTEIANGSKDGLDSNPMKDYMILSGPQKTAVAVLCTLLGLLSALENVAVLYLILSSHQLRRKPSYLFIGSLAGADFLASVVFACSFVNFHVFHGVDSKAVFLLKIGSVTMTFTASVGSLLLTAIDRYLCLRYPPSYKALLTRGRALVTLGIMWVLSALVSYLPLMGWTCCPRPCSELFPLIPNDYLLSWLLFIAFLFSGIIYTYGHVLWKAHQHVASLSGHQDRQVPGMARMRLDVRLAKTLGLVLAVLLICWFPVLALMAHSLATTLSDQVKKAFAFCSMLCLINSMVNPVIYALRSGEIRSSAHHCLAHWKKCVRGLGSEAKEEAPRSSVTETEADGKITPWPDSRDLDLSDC

In general, IC50 refers to the point on the concentration scale where inhibition reaches its midpoint. In general, EC50 refers to the midpoint of the concentration-response curve. Regarding `Cc1c(C(=O)c2cccc3ccccc23)c2sccc2n1CCN1CCOCC1` [Compound I-1], the IC50 was 100 to 1000 nM at hCB1 (hCB1 IC50 (CP displ, nM, HEK)) and below 100 nM on hCB2 [2] (hCB2 IC50 (CP displ, nM, HEK)). Besides, on hCB2 [1], the half-maximal effective concentration (EC50) was below 100 nM.

Take `CCCn1c(C)c(C(=O)c2cccc3ccccc23)c2ccsc21` [Compound I-2]: the IC50 on hCB1 (hCB1 IC50 (CP displ, nM, HEK)) was 1000 to 10000 nM; at hCB2 [2] (hCB2 IC50 (CP displ, nM, HEK)), 100 to 1000 nM. The concentration giving a half-maximal response (EC50) at hCB2 [1] was 100 to 1000 nM.

Consider `Cc1[nH]c2sccc2c1C(=O)c1cccc2ccccc12` [Compound I-3], for which the IC50 on hCB1 (hCB1 IC50 (CP displ, nM, HEK)) is above 10000 nM; on hCB2 [2] (hCB2 IC50 (CP displ, nM, HEK)) it was 1000 to 10000 nM. The EC50 at hCB2 [1] was below 100 nM.

Take `Cc1[nH]c2ccsc2c1C(=O)c1cccc2ccccc12` [Compound I-4]: the IC50 at hCB1 (hCB1 IC50 (CP displ, nM, HEK)) is above 10000 nM; at hCB2 [2] (hCB2 IC50 (CP displ, nM, HEK)), 1000 to 10000 nM. At hCB2 [1] (setting [4]), the EC50 was 1000 to 10000 nM.

Regarding `Cc1c(C(=O)c2cccc3ccccc23)c2ccsc2n1CCN1CCOCC1` [Compound I-5], the IC50 was 100 to 1000 nM at hCB1 (hCB1 IC50 (CP displ, nM, HEK)) and below 100 nM on hCB2 [2] (hCB2 IC50 (CP displ, nM, HEK)). Besides, the half-maximal effective concentration (EC50) on hCB2 [1] is below 100 nM.

Consider `CCCn1c(C)c(C(=O)c2c(C)n(CCC)c3sccc23)c2ccccc21` [Compound I-7], for which the IC50 at hCB1 (hCB1 IC50 (CP displ, nM, HEK)) was 1000 to 10000 nM; on hCB2 [2] (hCB2 IC50 (CP displ, nM, HEK)), 100 to 1000 nM.

For `Cc1c(C(=O)c2cc3ccccc3[nH]2)c2ccsc2n1CCN1CCOCC1` [Compound I-10], the 50% inhibitory concentration (IC50) lay in the range of 1000 to 10000 nM at hCB1 (hCB1 IC50 (CP displ, nM, HEK)) and 100 to 1000 nM at hCB2 [2] (hCB2 IC50 (CP displ, nM, HEK)).

Take `CCCn1c(C)c(C(=O)c2cccc3ccccc23)c2sccc21` [Compound I-12]: the IC50 on hCB1 (hCB1 IC50 (CP displ, nM, HEK)) lay within 1000 to 10000 nM; on hCB2 [2] (hCB2 IC50 (CP displ, nM, HEK)), 100 to 1000 nM. On hCB2 [1], this molecule gave a 50% effective concentration (EC50) below 100 nM.

For the molecule `CCCn1c(C(=O)c2c(C)[nH]c3sccc23)cc2ccccc21` [Compound I-13], the IC50 is above 10000 nM at hCB1 (read-out: hCB1 IC50 (CP displ, nM, HEK)) and above 10000 nM at hCB2 [2] (read-out: hCB2 IC50 (CP displ, nM, HEK)).

As for `CCn1c(C(=O)c2c(C)n(CCCCl)c3ccccc23)cc2ccsc21` [Compound I-18], the IC50 was 100 to 1000 nM at hCB1 (hCB1 IC50 (CP displ, nM, HEK)) and below 100 nM at hCB2 [2] (hCB2 IC50 (CP displ, nM, HEK)). Also, the EC50 on hCB2 [1] and at hCB2 [3] was below 100 nM each time.

As to `CCCn1c(C)c(C(=O)c2cc3sccc3s2)c2ccccc21` [Compound I-20], the IC50 at hCB1 (hCB1 IC50 (CP displ, nM, HEK)) is 1000 to 10000 nM; on hCB2 [2] (hCB2 IC50 (CP displ, nM, HEK)) it was 1000 to 10000 nM. Also, the EC50 on hCB2 [1] and on hCB2 [3] was 100 to 1000 nM throughout.

With `C=Cn1c(C)c(C(=O)c2cc3ccsc3n2CC)c2ccccc21` [Compound I-24], the “hCB1 IC50 (CP displ, nM, HEK)” value at hCB1 is “B/C”. In addition, the 50% effective concentration (EC50) at hCB2 [1] (setting [4]) is 100 to 1000 nM; on hCB2 [3] (cAMP agonist, HEK, 96-well, read-out: hCB2 EC50 (cAMP ag, nM, HEK (96-well))) it was below 100 nM. Further, on hCB2 [2] (hCB2 IC50 (CP displ, nM, HEK)), the half-inhibitory concentration (IC50) lay within 100 to 1000 nM.

The record behind these values is patent US20130178453A1, “Cannabinoid Agonists” (priority 2010, published 2013).
